Eight compounds from US8168650B2, “Therapeutic uses of bicyclic ligands of sigma 2 receptor” (priority 2006, dated 2012) can be followed below.

Data set [1] concerns Panc-02 cells. The data set is described as follows: Caspase inhibitors on sigma-2 receptor ligand-induced apoptosis in Panc-02 cells. The format is cell-based, mouse. As to the method: (§1) Tumor cells were seeded at a density of approximately 0.2×10^6 cells per well in 12-well plates in 1.0 ml culture medium. Cells were split and pre-incubated at 37° C. in humidified 5% CO2 for more than 24 hours (Panc-02) and 48 hours (CFPAC-1, AsPC-1, Panc-1) to insure uniform growth conditions. Compounds were dissolved in DMSO and added to the culture medium at the concentrations indicated. The final concentration of DMSO in the cell culture medium was less than 1%. The cells were then incubated for 24 hours at 37° C. in humidified 5% CO2. The extent of apoptosis was subsequently measured as previously reported (Guelen, L., et al., Oncogene 2004, 23: 1153-1165). Briefly, staining was performed on trypsin-EDTA treated cultures that had been fixed with 1% paraformaldehyde and 90% methanol. Cell pellets were resuspended in TUNEL reagent (APO-BRDU kit, San Diego, Calif.) or cleaved caspase-3 antibody (Cell Signaling Technology, Inc. Boston, Mass.) and incubated overnight at room temperature (TUNEL) or 4° C. (cleaved caspase-3). After washing, cells were resuspended in fluorescein antibody or 7-AAD buffer and incubated for 1 hour at room temperature. Cell-associated fluorescence was determined using a flow cytometry (FACScan, BD Biosciences) and analyzed with CellQuest software (BD Biosciences).
(§2) At the highest dose tested (10 μM), all sigma-2 receptor ligands induced an additional 10-20% of the cells to undergo apoptosis (FIG. 15A). […] The pan-caspase inhibitor (Z-VAD-fmk) and caspase-3/7 inhibitor (DEVD-CHO) prevented sigma-2 receptor ligand-induced apoptosis in panc-02 cells, while the caspase-1 inhibitor (YVAD-CHO) had no effect (FIG. 15B).

The test system of data set [2] is EMT-6 cells. The data set is described as follows: Colony formation assay on Doxorubicin-treated EMT-6 cells. The format is cell-based, mouse. As to the method:
This Example illustrates colony formation assay on Doxorubicin (“Dox”)-treated EMT-6 cells in the presence or absence of 2 μM WC-II-26. The structures of the sigma ligands used in this and subsequent examples are illustrated in FIG. 5 and FIG. 6.

The test system of data set [3] is EMT-6 cells. The data set is described as follows: TUNEL assay, enhancement of Dox-induced apoptosis in EMT-6 cells. The format is cell-based, mouse. As to conditions: EMT-6, Dox 30 nM alone. As to the method: In these experiments, a TUNEL assay was used to detect apoptotic cells with damaged DNA strands. […] Furthermore, EMT-6 cells treated with Dox at 30 nM yielded only 10% TUNEL-positive cells. However, when EMT-6 cells were treated with 2 μM WC-II-26 plus 30 nM Dox, the percentage of TUNEL-positive cells rose to 43.3%.

In data set [4] the test system is pancreatic cancer cell lines (Panc-02, CFPAC-1, AsPC-1, Panc-1). Nature of the data set: Apoptosis in pancreas cancer cell lines (TUNEL / cleaved caspase-3, flow cytometry). The format is cell-based, mouse, human. As to the method: as §1, §2
On the technique in general: A flow cytometer gives signals particle by particle.

The subject of data set [5] is EMT-6 cells. As to conditions: EMT-6, 1 h pre-incubation with inhibitor (100 μM); for effect on cell death / cytotoxic effects induced by the three σ2 selective ligands: MTS assay.
Description: To determine the effect of blocking the caspase-dependent apoptotic pathway on sigma ligand-induced cell killing, the caspase inhibitors, Z-VAD-FMK or Z-DEVD-FMK (Calbiochem, San Diego, Calif.) were added to the culture medium 1 hour before the sigma ligands, and the MTS assay performed as described above.
Data set [6] has as its target T1, sigma-2 receptors (Mus musculus, UniProt Q8VD00).
T1 construct: Membrane homogenates were prepared from ˜400 mg Panc-02 mouse tumor allografts; from tissue; host or cells: Panc-02 mouse pancreatic tumor allografts (membrane homogenates)
T1 sequence (Q8VD00 1-176): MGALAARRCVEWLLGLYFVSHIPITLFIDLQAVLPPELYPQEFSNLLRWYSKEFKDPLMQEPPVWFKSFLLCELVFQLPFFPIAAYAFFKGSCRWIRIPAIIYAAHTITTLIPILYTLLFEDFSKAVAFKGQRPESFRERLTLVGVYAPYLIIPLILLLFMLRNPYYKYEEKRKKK
The data set is described as follows: Saturation binding (Scatchard analysis) of [3H]RHM-1 in Panc-02 tumor allograft membrane homogenates. How it is done:
Membrane homogenates were prepared from ˜400 mg Panc-02 mouse tumor allografts, which were removed from tumor bearing mice and frozen on dry ice immediately and stored at −80° C. until used. Before homogenization, the tumor allografts were allowed to thaw slowly on ice. Tissue homogenization was carried out at 4° C. using a Potter-Elvehjem tissue grinder at a concentration of 1 g of tissue/ml of 50 mM Tris-HCl at pH 8.0. The crude membrane homogenate was then transferred to a 50 ml centrifuge tube and resuspended to a concentration of 200 mg of tissue/ml of 50 mM Tris-HCl. Additional homogenization was accomplished using an Ultra-Turrax T8 polython homogenizer (IKA Works, Inc, Wilmington, N.C.). The final homogenate was then centrifuged for 10 min at 1000 g, the pellet discarded and the supernatant mixed by vortexing and stored at −80° C. until used. The protein concentration of the suspension was determined (DC protein assay, Bio-Rad, Hercules, Calif.) and averaged ˜10 mg of protein/ml of stock solution. […] The concentrations of the radioligand ranged from 0.1-18 nM. […] Each filter was washed with 200 μl of ice-cold wash buffer for a total of three washes. […] The equilibrium dissociation constant (Kd) and maximum number of binding sites (BBmax) were determined by a linear regression analysis of the transformed data using the method of Scatchard.
Data from saturation radioligand binding studies was transformed to determine the Hill coefficient, nH, defined as: […]
In these experiments, direct saturation binding studies were carried out using [^3H]RHM-1 with membrane homogenates of PancO2 tumor allografts.

The test system of data set [7] is CFPAC-1. Nature of the data set: Apoptosis in CFPAC-1 cells. Format: cell-based, human. Conditions: CFPAC-1, highest dose tested. How it is done:
as §1, with “Biosciences). […]” for “Biosciences).”

Where [8] appears, read: membrane homogenates of Panc-02 tumor allografts.

Structures can show the parent of a compound that is named as a salt. Where two headings read alike, the source gives them in different places. Peptide text beside a SMILES is read from it. * marks the point of attachment. Cbz = O=C(OCc1ccccc1)*; CH2F = FC*

In the case of `COc1ccc(C)cc1NC(=O)OC1CC2CCCC(C1)N2CCCCCCNS(=O)(=O)c1cccc2c(N(C)C)cccc12` (stereo not drawn) (as salt: oxalate) [Compound 9, N-(9-(6-(5-Dimethylamino-1-naphthalenesulfonamido))hexyl)-9-azabicyclo[3.3.1]-nonan-3α-yl-N-(2-methoxy-5-methylphenyl)carbamate oxalate], the melting point – broadly, the temperature, or range, at which the solid turns liquid – is 162 to 163 °C.
Take `CC(=O)N[C@@H](CC(=O)O)C(=O)N[C@@H](CCC(=O)O)C(=O)N[C@H](C(=O)N[C@H](C=O)CC(=O)O)C(C)C` [DEVD-CHO]: in data set [1], the “effect on sigma-2 receptor ligand-induced apoptosis” value is “prevented”.
Regarding `COc1cccc2c1C(=O)c1c(O)c3c(c(O)c1C2=O)C[C@@](O)(C(=O)CO)C[C@@H]3O[C@H]1C[C@H](N)[C@H](O)[C@H](C)O1` [Dox, Doxorubicin, reference compound], the “number of colonies formed compared to control cells” value in data set [2] (EMT-6, 10, 20, and 30 nM of Dox alone) was “not changed significantly”. In data set [2] (EMT-6, Dox 40 nM alone), the “decrease in colony forming efficiency” value is “about 25%”. The TUNEL-positive cells in data set [3] is on record as 10%.
Regarding `O=C(CCCN1CCC(O)(c2ccc(Cl)cc2)CC1)c1ccc(F)cc1` [Haloperidol, reference compound], in data set [4] (24 hours incubation), the “apoptosis in all pancreas cancer cell lines tested” value is “dose-dependent apoptosis”.
As to `CC(=O)N[C@@H](Cc1ccc(O)cc1)C(=O)N[C@H](C(=O)N[C@@H](C)C(=O)N[C@H](C=O)CC(=O)O)C(C)C` [YVAD-CHO], in data set [1], the “effect on sigma-2 receptor ligand-induced apoptosis” value is on record as “no effect”.
Consider `COC(=O)C[C@H](NC(=O)[C@H](C)NC(=O)[C@@H](NC(=O)OCc1ccccc1)C(C)C)C(=O)CF` [Z-VAD-FMK] (Cbz-Val-Ala-Asp(OMe)-CH2F), for which the “effect on sigma-2 receptor ligand-induced apoptosis” value in data set [1] is “prevented”. For the same compound, in data set [5], the “effect on DNA fragmentation after treatment with the three σ2 selective ligands” value was “partially blocked”. Besides, the “effect on cell death / cytotoxic effects induced by the three σ2 selective ligands” value in data set [5] was “partially, but not completely, blocked”; in data set [5] (listed as Z-VADFMK) it was “partially blocked”.
On to `COc1cc2c(cc1OC)CN(CCCCNC(=O)c1cc(C)ccc1OC)CC2` [[3H]RHM-1], for which, in data set [6] (setting [8]), the “Bmax (maximum number of binding sites)” value came to 1250 fmol/mg protein and the Kd (in general, the free concentration of one partner at which half of the binding sites on the other are occupied at equilibrium, for simple one-to-one binding) was found to be 4.88 nM. Moreover, in data set [6] (saturation binding, Panc-02 tumor allografts), the “Hill coefficient nH (mean)” value was “close to unity”.
As for `CC(C)=CCN1CCC2(C)c3cc(O)ccc3CC1C2C` (stereo not shown) [pentazocine, reference compound], the increase in apoptosis in data set [7] is recorded as 8-10%. For the same compound, in data set [4] (all cell lines tested with the exception of CFPAC-1), the “toxicity to pancreas cancer cell lines” value is listed as “minimal toxicity”.
